According to patent US20100210652A1, “Method For Controlling Fungal Pests” (priority 2006, published 2010):

How the values were obtained:
[1] = tested on: resistant Plasmopara viticola strains; test: Activity against resistant Plasmopara viticola strains on grapevine plants (Riesling); assay type: in vivo; conditions: for diseased leaf area: resistant fungi, grapevine (Riesling), final evaluation on day 6; for assessment in words of the treatment of resistant fungal strains: preventative treatment
Method: (§1) Study on the activity of the four carboxamide fungicides against sensitive and resistant Plasmopara viticola strains.
(§2) Four-week old grapevine plants (Riesling) with 6-8 leaves are treated with 50 ml of a solution which contains the harmful fungi (200 000 spores of the fungus Plasmopara viticola per milliliter). Tests are carried out both with sensitive and with resistant strains.
(§3) The fungicidal active substances described in Example 1 are applied both one day before the treatment with the harmful fungi (preventative treatment) and in each case one day after the treatment with the harmful fungi (curative treatment). After the treatment with the harmful fungi, the plants are left to stand overnight at 95% atmospheric humidity and a temperature of 18° C. This is followed by a 6-day observation phase and a final evaluation on day 6, the test plants being exposed to daylight for 12 hours and left to stand in the dark for 12 hours.
(§4) To promote spore development, the undersides of the grapevine leaves are sprayed with water 24 hours before carrying out the final evaluation and left to stand.
(§5) The experiments are evaluated by determining the percentage of diseased leaf area of each plant. A high percentage means a high disease level caused by the harmful fungus, while a low percentage means a low disease level caused by the harmful fungus.

[2] = tested on: sensitive Plasmopara viticola strains; test: Activity against sensitive Plasmopara viticola strains on grapevine plants (Riesling); assay type: in vivo; conditions: final evaluation on day 6
Method: as §1, §2, §3, §4, §5

[3] = curative treatment (one day after treatment with the harmful fungi)
[4] = preventative treatment (one day before treatment with the harmful fungi)

## C#CCOc1ccc(CCNC(=O)C(OCC#C)c2ccc(Cl)cc2)cc1OC (racemic) [stock solution B, (RS)-2-(4-chlorophenyl)-N-[3-methoxy-4-(prop-2-ynyloxy)phenethyl]-2-(prop-2-ynyloxy)acetamide]
[1]; [3]
  diseased leaf area: 65%
[1]; [4]
  diseased leaf area: 8%
[1]
  assessment in words of the treatment of resistant fungal strains: effective
[2]; [3]
  diseased leaf area: 0%
[2]; [4]
  diseased leaf area: 0%

## Cc1ccc(C(C)NC(=O)[C@@H](NC(=O)OC(C)C)C(C)C)cc1 (stereo partly drawn) [stock solution C, isopropyl 2-methyl-1-[(1-p-tolylethyl)carbamoyl]-(S)-propylcarbamate]
[1]; [3]
  diseased leaf area: 75%
[1]; [4]
  diseased leaf area: 70%
[1]
  assessment in words of the treatment of resistant fungal strains: no satisfactory results
[2]; [3]
  diseased leaf area: 0%
[2]; [4]
  diseased leaf area: 0%

## COc1ccc(C(=CC(=O)N2CCOCC2)c2ccc(Cl)cc2)cc1OC [stock solution A, (E,Z)-4-[3-(4-chlorophenyl)-3-(3,4-dimethoxyphenyl)acryloyl]morpholine]
[1]; [3]
  diseased leaf area: 70%
[1]; [4]
  diseased leaf area: 0.5%
[1]
  assessment in words of the treatment of resistant fungal strains: effective
[2]; [3]
  diseased leaf area: 0%
[2]; [4]
  diseased leaf area: 0%

## CC(C)OC(=O)N[C@H](C(=O)N[C@H](C)c1nc2ccc(F)cc2s1)C(C)C [stock solution D, isopropyl[(S)-1-{[(R)-1-(6-fluoro-1,3-benzothiazol-2-yl)ethyl]carbamoyl}-2-methylpropyl]carbamate]
[1]; [3]
  diseased leaf area: 70%
[1]; [4]
  diseased leaf area: 55%
[1]
  assessment in words of the treatment of resistant fungal strains: no satisfactory results
[2]; [3]
  diseased leaf area: 0%
[2]; [4]
  diseased leaf area: 0%
